In patent US12479840B2, “HMG-CoA reductase degradation inducing compound” (Uppthera, priority 2020, dated 2025):

The compounds below were run against T1, HMG-CoA reductase (Homo sapiens, UniProt P04035) (assay: HMG-CoA reductase (HMGCR) degradation in HepG2 cells by western blotting). Details: treated for 18 hours, ratio of HMG-CoA reductase to GAPDH, read-out: DC50.
T1 construct: endogenous in cells; host or cells: HepG2 (Korea Cell Line Bank)
T1 sequence (P04035 1-888): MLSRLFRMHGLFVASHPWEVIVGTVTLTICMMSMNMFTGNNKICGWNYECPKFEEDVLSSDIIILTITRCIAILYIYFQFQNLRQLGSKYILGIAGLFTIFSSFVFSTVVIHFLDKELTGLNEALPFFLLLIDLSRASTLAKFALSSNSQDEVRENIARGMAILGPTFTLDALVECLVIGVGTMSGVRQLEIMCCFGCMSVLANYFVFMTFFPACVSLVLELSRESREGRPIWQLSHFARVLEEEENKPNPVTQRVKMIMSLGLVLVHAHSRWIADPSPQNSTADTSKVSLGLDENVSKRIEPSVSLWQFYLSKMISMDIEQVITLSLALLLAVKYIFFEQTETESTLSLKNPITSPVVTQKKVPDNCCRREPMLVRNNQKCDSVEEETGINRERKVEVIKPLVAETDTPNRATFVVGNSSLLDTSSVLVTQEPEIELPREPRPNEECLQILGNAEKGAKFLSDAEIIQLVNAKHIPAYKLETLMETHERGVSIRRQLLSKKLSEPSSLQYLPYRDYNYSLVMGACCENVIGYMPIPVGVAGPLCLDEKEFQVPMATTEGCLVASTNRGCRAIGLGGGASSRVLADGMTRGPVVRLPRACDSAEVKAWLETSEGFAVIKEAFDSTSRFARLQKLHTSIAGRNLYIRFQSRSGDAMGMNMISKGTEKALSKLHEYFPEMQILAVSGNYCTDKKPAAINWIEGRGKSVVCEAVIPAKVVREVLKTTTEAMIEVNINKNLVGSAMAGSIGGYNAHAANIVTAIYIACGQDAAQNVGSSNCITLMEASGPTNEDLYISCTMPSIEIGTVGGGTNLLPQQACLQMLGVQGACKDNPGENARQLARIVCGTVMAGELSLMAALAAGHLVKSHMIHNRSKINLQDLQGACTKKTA
Type: cell-based
In short: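 HepG2 cells (passage P105–P110) treated 18 hours with compounds in 10-point three-fold dilutions from 3 μM. RIPA lysates (15 μg protein, BCA-quantified) run on SDS-PAGE and immunoblotted for HMGCR (1:500) with GAPDH (1:20000) as loading control, primary antibodies 16 hours at 4° C.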

Structure (SMILES) | DC50 [nM]
CN[C@@H](C)C(=O)N[C@H](C(=O)N1CCC[C@H]1c1nc(C(=O)c2cccc(OCCOCCOCCOCCNC(=O)O[C@H]3C[C@@H](C)C=C4C=C[C@H](C)[C@H](CC[C@@H]5C[C@@H](O)CC(=O)O5)[C@H]43)c2)cs1)C1CCCCC1 [Compound 32, (1S,3R,7S,8S,8aR)-8-(2-((2R,4R)-4-hydroxy-6-oxotetrahydro-2H-pyran-2-yl)ethyl)-3,7-dimethyl-1,2,3,7,8,8a-hexahydronaphthalen-1-yl (2-(2-(2-(2-(3-(2-((S)-1-((S)-2-cyclohexyl-2-((S)-2-(methylamino)propanamido)acetyl)pyrrolidin-2-yl)thiazole-4-carbonyl)phenoxy)ethoxy)ethoxy)ethoxy)ethyl)carbamate] | < 50
CN[C@@H](C)C(=O)N[C@H](C(=O)N1CCC[C@H]1c1nc(C(=O)c2cccc(OCCOCCOCCOCCOCCNC(=O)O[C@H]3C[C@@H](C)C=C4C=C[C@H](C)[C@H](CC[C@@H]5C[C@@H](O)CC(=O)O5)[C@H]43)c2)cs1)C1CCCCC1 [Compound 33, (1S,3R,7S,8S,8aR)-8-(2-((2R,4R)-4-hydroxy-6-oxotetrahydro-2H-pyran-2-yl)ethyl)-3,7-dimethyl-1,2,3,7,8,8a-hexahydronaphthalen-1-yl (14-(3-(2-((S)-1-((S)-2-cyclohexyl-2-((S)-2-(methylamino)propanamido)acetyl)pyrrolidin-2-yl)thiazole-4-carbonyl)phenoxy)-3,6,9,12-tetraoxatetradecyl)carbamate] | < 50
CN[C@@H](C)C(=O)N[C@H](C(=O)N1CCC[C@@H]1c1nc(C(=O)c2cccc(OCCOCCOCCNC(=O)O[C@H]3C[C@@H](C)C=C4C=C[C@H](C)[C@H](CC[C@@H]5C[C@@H](O)CC(=O)O5)[C@H]43)c2)cs1)C1CCCCC1 [Compound 34, (1S,3R,7S,8S,8aR)-8-(2-((2R,4R)-4-hydroxy-6-oxotetrahydro-2H-pyran-2-yl)ethyl)-3,7-dimethyl-1,2,3,7,8,8a-hexahydronaphthalen-1-yl (2-(2-(2-(3-(2-((R)-1-((S)-2-cyclohexyl-2-((S)-2-(methylamino)propanamido)acetyl)pyrrolidin-2-yl)thiazole-4-carbonyl)phenoxy)ethoxy)ethoxy)ethyl)carbamate] | > 500
CN[C@@H](C)C(=O)N[C@H](C(=O)N1CCC[C@@H]1c1nc(C(=O)c2cccc(OCCOCCOCCNC(=O)O[C@H]3C[C@@H](C)C=C4C=C[C@H](C)[C@H](CC[C@@H]5C[C@@H](O[Si](C)(C)C(C)(C)C)CC(=O)O5)[C@H]43)c2)cs1)C1CCCCC1 [Compound 35, (1S,3R,7S,8S,8aR)-8-(2-((2R,4R)-4-((tert-butyldimethylsilyl)oxy)-6-oxotetrahydro-2H-pyran-2-yl)ethyl)-3,7-dimethyl-1,2,3,7,8,8a-hexahydronaphthalen-1-yl (2-(2-(2-(3-(2-((R)-1-((S)-2-cyclohexyl-2-((S)-2-(methylamino)propanamido)acetyl)pyrrolidin-2-yl)thiazole-4-carbonyl)phenoxy)ethoxy)ethoxy)ethyl)carbamate] | > 500
CN[C@@H](C)C(=O)N[C@H](C(=O)N1CCC[C@H]1c1nc(C(=O)c2cccc(OCCOCCOCCNC(=O)O[C@H]3C[C@@H](C)C=C4C=C[C@H](C)[C@H](CC[C@@H]5C[C@@H](O[Si](C)(C)C(C)(C)C)CC(=O)O5)[C@H]43)c2)cs1)C1CCCCC1 [Compound 36, (1S,3R,7S,8S,8aR)-8-(2-((2R,4R)-4-((tert-butyldimethylsilyl)oxy)-6-oxotetrahydro-2H-pyran-2-yl)ethyl)-3,7-dimethyl-1,2,3,7,8,8a-hexahydronaphthalen-1-yl (2-(2-(2-(3-(2-((S)-1-((S)-2-cyclohexyl-2-((S)-2-(methylamino)propanamido)acetyl)pyrrolidin-2-yl)thiazole-4-carbonyl)phenoxy)ethoxy)ethoxy)ethyl)carbamate] | < 50
CN[C@@H](C)C(=O)N[C@H](C(=O)N1CCC[C@H]1c1nc(C(=O)c2cccc(OCCOCCOCCOCCNC(=O)O[C@H]3C[C@@H](C)C=C4C=C[C@H](C)[C@H](CC[C@@H]5C[C@@H](O[Si](C)(C)C(C)(C)C)CC(=O)O5)[C@H]43)c2)cs1)C1CCCCC1 [Compound 37, (1S,3R,7S,8S,8aR)-8-(2-((2R,4R)-4-((tert-butyldimethylsilyl)oxy)-6-oxotetrahydro-2H-pyran-2-yl)ethyl)-3,7-dimethyl-1,2,3,7,8,8a-hexahydronaphthalen-1-yl (2-(2-(2-(2-(3-(2-((S)-1-((S)-2-cyclohexyl-2-((S)-2-(methylamino)propanamido)acetyl)pyrrolidin-2-yl)thiazole-4-carbonyl)phenoxy)ethoxy)ethoxy)ethoxy)ethyl)carbamate] | < 50
CN[C@@H](C)C(=O)N[C@H](C(=O)N1CCC[C@H]1c1nc(C(=O)c2cccc(OCCOCCOCCOCCOCCNC(=O)O[C@H]3C[C@@H](C)C=C4C=C[C@H](C)[C@H](CC[C@@H]5C[C@@H](O[Si](C)(C)C(C)(C)C)CC(=O)O5)[C@H]43)c2)cs1)C1CCCCC1 [Compound 38, (1S,3R,7S,8S,8aR)-8-(2-((2R,4R)-4-((tert-butyldimethylsilyl)oxy)-6-oxotetrahydro-2H-pyran-2-yl)ethyl)-3,7-dimethyl-1,2,3,7,8,8a-hexahydronaphthalen-1-yl (14-(3-(2-((S)-1-((S)-2-cyclohexyl-2-((S)-2-(methylamino)propanamido)acetyl)pyrrolidin-2-yl)thiazole-4-carbonyl)phenoxy)-3,6,9,12-tetraoxatetradecyl)carbamate] | < 50
C[C@H]1C=C2C=C[C@H](C)[C@H](CC[C@@H]3C[C@@H](O)CC(=O)O3)[C@H]2[C@@H](OC(=O)NCCOCCOCCOCCNc2ccccc2)C1 [Compound 39, (1S,3R,7S,8S,8aR)-8-(2-((2R,4R)-4-hydroxy-6-oxotetrahydro-2H-pyran-2-yl)ethyl)-3,7-dimethyl-1,2,3,7,8,8a-hexahydronaphthalen-1-yl (2-(2-(2-(2-(phenylamino)ethoxy)ethoxy)ethoxy)ethyl)carbamate] | > 500
C[C@H]1C=C2C=C[C@H](C)[C@H](CC[C@@H]3C[C@@H](O)CC(=O)O3)[C@H]2[C@@H](OC(=O)NCCOCCOCCNc2cccc3c2C(=O)N(C2CCC(=O)NC2=O)C3=O)C1 (stereo partly drawn) [Compound 40, (1S,3R,7S,8S,8aR)-8-(2-((2R,4R)-4-hydroxy-6-oxotetrahydro-2H-pyran-2-yl)ethyl)-3,7-dimethyl-1,2,3,7,8,8a-hexahydronaphthalen-1-yl (2-(2-(2-((2-(2,6-dioxopiperidin-3-yl)-1,3-dioxoisoindolin-4-yl)amino)ethoxy)ethoxy)ethyl)carbamate] | < 50
C[C@H]1C=C2C=C[C@H](C)[C@H](CC[C@@H]3C[C@@H](O)CC(=O)O3)[C@H]2[C@@H](OC(=O)NCCOCCOCCOCCNc2cccc3c2C(=O)N(C2CCC(=O)NC2=O)C3=O)C1 (stereo partly drawn) [Compound 41, (1S,3R,7S,8S,8aR)-8-(2-((2R,4R)-4-hydroxy-6-oxotetrahydro-2H-pyran-2-yl)ethyl)-3,7-dimethyl-1,2,3,7,8,8a-hexahydronaphthalen-1-yl (2-(2-(2-(2-((2-(2,6-dioxopiperidin-3-yl)-1,3-dioxoisoindolin-4-yl)amino)ethoxy)ethoxy)ethoxy)ethyl)carbamate] | < 50
C[C@H]1C=C2C=C[C@H](C)[C@H](CC[C@@H]3C[C@@H](O)CC(=O)O3)[C@H]2[C@@H](OC(=O)NCCOCCOCCOCCOCCNc2cccc3c2C(=O)N(C2CCC(=O)NC2=O)C3=O)C1 (stereo partly drawn) [Compound 42, (1S,3R,7S,8S,8aR)-8-(2-((2R,4R)-4-hydroxy-6-oxotetrahydro-2H-pyran-2-yl)ethyl)-3,7-dimethyl-1,2,3,7,8,8a-hexahydronaphthalen-1-yl (14-((2-(2,6-dioxopiperidin-3-yl)-1,3-dioxoisoindolin-4-yl)amino)-3,6,9,12-tetraoxatetradecyl)carbamate] | < 50
C[C@H]1C=C2C=C[C@H](C)[C@H](CC[C@@H]3C[C@@H](O)CC(=O)O3)[C@H]2[C@@H](OC(=O)NCCOCCOCCOCCOCCOCCNc2cccc3c2C(=O)N(C2CCC(=O)NC2=O)C3=O)C1 (stereo partly drawn) [Compound 43, (1S,3R,7S,8S,8aR)-8-(2-((2R,4R)-4-hydroxy-6-oxotetrahydro-2H-pyran-2-yl)ethyl)-3,7-dimethyl-1,2,3,7,8,8a-hexahydronaphthalen-1-yl (17-((2-(2,6-dioxopiperidin-3-yl)-1,3-dioxoisoindolin-4-yl)amino)-3,6,9,12,15-pentaoxaheptadecyl)carbamate] | < 50
